≈ marks a conversion by molar mass, not a printed value.
Key:
[1] = tested on: Mycobacterium tuberculosis; test: Antimycobacterial activity against Mycobacterium tuberculosis H37Rv ATCC 27294 assessed as growth inhibition after 5 days by microdilution method; type: functional; conditions: H37Rv ATCC 27294, 120 h
[2] = tested on: Mycobacterium tuberculosis; test: Antimycobacterial activity against Mycobacterium tuberculosis H37Rv ATCC 27294 assessed as reduction of colony forming units by microdilution method; type: functional
[3] = Inhibition of Mycobacterium smegmatis DprE1 expressed in Escherichia coli Rosetta cells using farnesyl-phosphoryl-beta-D-ribofuranose as substrate by fluorescence analysis; set-up: species or system Mycolicibacterium smegmatis
[4] = tested on: Mycobacterium tuberculosis; test: Antimycobacterial activity against wild type Mycobacterium tuberculosis H37Rv assessed as growth inhibition by resazurin assay; type: functional
[5] = tested on: Mycobacterium tuberculosis; test: Antimycobacterial activity against Mycobacterium tuberculosis Beijing (E-47/94) assessed as growth inhibition after 2 to 3 weeks by turbidometry; type: functional
[6] = tested on: Mycobacterium tuberculosis; test: Antimycobacterial activity against Mycobacterium tuberculosis H37Rv ATCC 27294 assessed as growth inhibition after 2 to 3 weeks by turbidometry; type: functional
[7] = tested on: Mycobacterium tuberculosis; test: Antimycobacterial activity against Mycobacterium tuberculosis D-211 assessed as growth inhibition after 2 to 3 weeks by turbidometry; type: functional
[8] = Aqueous kinetic solubility of the compound in 0.1 M phosphate buffer at pH 7.4 by UV-MS analysis; type: physicochemical; conditions: read-out: Kinetic_solubility
[9] = Octanol-water partition coefficient, log D of the compound by shake flask method; type: physicochemical
[10] = Fraction unbound in human plasma at 20 uM by equilibrium dialysis technique; type: ADME, cell-free
[11] = Selectivity index, ratio of IC50 human A549 cells to MIC for Mycobacterium tuberculosis; type: toxicity, cell-based; conditions: read-out: Selectivity Index
[12] = tested on: Mycobacterium tuberculosis; test: Antimycobacterial activity against Mycobacterium tuberculosis H37Rv infected in human THP-1 cells assessed as log reduction in colony forming units at 16 uM incubated for 7 days measured after 21 to 28 days; type: functional
[13] = Inhibition of Mycobacterium smegmatis DprE1 Y321H mutant expressed in Escherichia coli Rosetta cells using farnesyl-phosphoryl-beta-D-ribofuranose as substrate by fluorescence analysis; set-up: species or system Mycolicibacterium smegmatis
[14] = tested on: Mycolicibacterium smegmatis; test: Ratio of IC50 for Mycobacterium smegmatis DprE1 C394G mutant expressed in Escherichia coli Rosetta cells to IC50 for wild type Mycobacterium smegmatis DprE1 expressed in Escherichia coli Rosetta cells
[15] = tested on: Mycolicibacterium smegmatis; test: Ratio of IC50 for Mycobacterium smegmatis DprE1 Y321H mutant expressed in Escherichia coli Rosetta cells to IC50 for wild type Mycobacterium smegmatis DprE1 expressed in Escherichia coli Rosetta cells
[16] = tested on: Mycobacterium tuberculosis; test: Antimycobacterial activity against Mycobacterium tuberculosis H37Rv assessed as bacterial killing by two-fold serial dilution method; type: functional, organism-based; conditions: TDE = time-dependent effect
[17] = tested on: Mycobacterium tuberculosis; test: Antimycobacterial activity against Mycobacterium tuberculosis H37Rv assessed as log reduction in colony forming units on day 10 by two-fold serial dilution method; type: functional
[18] = Inhibition of Mycobacterium smegmatis DprE1 C394G mutant expressed in Escherichia coli Rosetta cells using farnesyl-phosphoryl-beta-D-ribofuranose as substrate by fluorescence analysis; set-up: species or system Mycolicibacterium smegmatis
[19] = tested on: Mycolicibacterium smegmatis; test: Ratio of IC50 for wild type Mycobacterium smegmatis DprE1 expressed in Escherichia coli Rosetta cells to IC50 for Mycobacterium smegmatis DprE1 C394G mutant expressed in Escherichia coli Rosetta cells

| SMILES | MIC [1] | MBC [2] | IC50 [3] | MIC [4] | further results |
| --- | --- | --- | --- | --- | --- |
| Cc1ccc(-n2nc(C)c3cc(CNCc4cccc(C(F)(F)F)c4)c(=O)[nH]c32)cc1 | 12.5 µM (≈ 5.33 µg/mL) | 12.5 µM (≈ 5.33 µg/mL) | 600 nM | – | – |
| C[C@@H](NC(=O)c1cc([N+](=O)[O-])cc(C(F)(F)F)c1)c1ccccc1 | – | – | – | 0.943 µM (≈ 0.319 µg/mL) | – |
| CO[C@H]1/C=C/O[C@@]2(C)Oc3c(C)c(O)c4c(O)c(c(/C=N/N5CCN(C)CC5)c(O)c4c3C2=O)NC(=O)/C(C)=C\C=C\[C@H](C)[C@H](O)[C@@H](C)[C@@H](O)[C@@H](C)[C@H](OC(C)=O)[C@@H]1C [RIFAMPIN] | – | – | – | – | MIC [5]: 0.02 µM (≈ 0.0165 µg/mL); MIC [6]: 0.02 µM (≈ 0.0165 µg/mL); MIC [7]: 0.02 µM (≈ 0.0165 µg/mL) |
| CN[C@@H]1[C@H](O[C@H]2[C@H](O[C@H]3[C@H](O)[C@@H](O)[C@H](N=C(N)N)[C@@H](O)[C@@H]3N=C(N)N)O[C@@H](C)[C@]2(O)C=O)O[C@@H](CO)[C@H](O)[C@H]1O [STREPTOMYCIN] | – | – | – | – | MIC [5]: 0.3 µM (≈ 0.174 µg/mL); MIC [6]: 0.3 µM (≈ 0.174 µg/mL); MIC [7]: 0.3 µM (≈ 0.174 µg/mL) |
| CCOC(=O)NC(=O)c1ccsc1NC(=O)c1nc2ccccc2s1 | – | – | – | 0.5 µM (≈ 0.188 µg/mL) | – |
| O=c1[nH]c2c(cc1CNCc1cccc(C(F)(F)F)c1)c(C1CC1)nn2-c1ccccc1 | 1.5 µM (≈ 0.658 µg/mL) | 2.8 µM (≈ 1.23 µg/mL) | 40 nM | > 0.1 µM | MIC [5]: 1.6 µM (≈ 0.702 µg/mL); MIC [6]: 1.6 µM (≈ 0.702 µg/mL); MIC [7]: 1.6 µM (≈ 0.702 µg/mL); solubility kinetic [8]: 1 µM (≈ 0.438 µg/mL); logD [9]: 3.9; fraction unbound at 20 µM [10]: 0.01; selectivity ratio [11]: 10 |
| Cc1nn(-c2ccccc2)c2[nH]c(=O)c(CNCc3ccccc3)cc12 | > 100 µM | – | 1400 nM | – | – |
| Cc1ccc(C(F)(F)F)cc1CNCc1cc2c(C3CC3)nn(-c3ccccc3)c2[nH]c1=O | 0.1 µM (≈ 0.0452 µg/mL) | < 0.5 µM | 10 nM | 0.002 µM (≈ 0.000905 µg/mL) | log10cfu [12]: 1; IC50 [13]: 7400 nM; Ratio IC50 [14]: 1; Ratio IC50 [15]: 740; solubility kinetic [8]: < 1 µM; logD [9]: 3.9; fraction unbound at 20 µM [10]: < 0.01; selectivity ratio [11]: > 250; Activity [16]: tde; log10cfu [17]: >4 |
| Cc1ccc(C(F)(F)F)cc1CNCc1cc2c(C)nn(-c3ccccc3)c2[nH]c1=O | 0.8 µM (≈ 0.341 µg/mL) | 1.2 µM (≈ 0.512 µg/mL) | 7 nM | – | IC50 [18]: 10 nM; IC50 [13]: 1500 nM; Ratio IC50 [14]: 1; Ratio IC50 [15]: 150; solubility kinetic [8]: 55 µM (≈ 23.5 µg/mL); logD [9]: 3.7; fraction unbound at 20 µM [10]: < 0.01; selectivity ratio [11]: 20 |
| Cc1ccc(CNCc2cc3c(C)nn(-c4ccccc4)c3[nH]c2=O)cc1C | 25 µM (≈ 9.31 µg/mL) | 50 µM (≈ 18.6 µg/mL) | 1200 nM | – | – |
| Cc1cccc(CNCc2cc3c(C)nn(-c4ccccc4)c3[nH]c2=O)c1 | 100 µM (≈ 35.8 µg/mL) | 100 µM (≈ 35.8 µg/mL) | 2800 nM | – | – |
| Cc1ccc(C(F)(F)F)cc1CNCc1cc2c(C(C)C)nn(-c3ccccc3)c2[nH]c1=O | 0.4 µM (≈ 0.182 µg/mL) | < 0.5 µM | < 5 nM | – | solubility kinetic [8]: 10 µM (≈ 4.54 µg/mL); logD [9]: > 4.4; fraction unbound at 20 µM [10]: < 0.01; selectivity ratio [11]: 35 |
| Cc1nn(-c2ccccn2)c2[nH]c(=O)c(CNCc3cccc(C(F)(F)F)c3)cc12 | > 100 µM | – | – | – | – |
| Cc1nn(-c2ccccc2)c2[nH]c(=O)c(CNCc3cccc(C(F)(F)F)c3)cc12 | 3.1 µM (≈ 1.28 µg/mL) | 8.5 µM (≈ 3.51 µg/mL) | 400 nM | > 0.1 µM | MIC [5]: 3.1 µM (≈ 1.28 µg/mL); MIC [6]: 3.1 µM (≈ 1.28 µg/mL); MIC [7]: 3.1 µM (≈ 1.28 µg/mL) |
| CC1COc2c(N3CCN(C)CC3)c(F)cc3c(=O)c(C(=O)O)cn1c23 (stereo unspecified) [OFLOXACIN] | – | – | – | – | MIC [5]: 0.7 µM (≈ 0.253 µg/mL); MIC [6]: 0.7 µM (≈ 0.253 µg/mL); MIC [7]: 0.7 µM (≈ 0.253 µg/mL) |
| Cc1nn(-c2ccccc2)c2[nH]c(=O)c(C(=O)NCc3cccc(C(F)(F)F)c3)cc12 | > 100 µM | – | 1000 nM | – | – |

| SMILES | MIC [1] | MBC [2] | IC50 [3] | MIC [4] | further results |
| --- | --- | --- | --- | --- | --- |
| Cc1nn(C)c2[nH]c(=O)c(CNCc3cccc(C(F)(F)F)c3)cc12 | > 100 µM | – | > 100000 nM | – | – |
| C[C@H]1COC2(CCN(c3nc(=O)c4cc(C(F)(F)F)cc([N+](=O)[O-])c4s3)CC2)O1 [BTZ-043] | – | – | 5 nM | 0.003 µM (≈ 0.00129 µg/mL) | – |
| Cc1nn(-c2ccccc2)c2[nH]c(=O)c(CNCc3cccc(F)c3)cc12 | 75 µM (≈ 27.2 µg/mL) | 100 µM (≈ 36.2 µg/mL) | 2000 nM | – | – |
| O=c1[nH]c2c(cc1CNCc1cc(C(F)(F)F)ccc1F)c(C1CC1)nn2-c1ccccc1 | 1.6 µM (≈ 0.73 µg/mL) | 4.4 µM (≈ 2.01 µg/mL) | 40 nM | 0.002 µM (≈ 0.000913 µg/mL) | IC50 [18]: 10 nM; IC50 [13]: 4500 nM; Ratio IC50 [15]: 107; Ratio IC50 [19]: 4 |
| O=c1[nH]c2c(cc1CNCc1cccc(C(F)(F)F)c1F)c(C1CC1)nn2-c1ccccc1 | 1.6 µM (≈ 0.73 µg/mL) | 4.1 µM (≈ 1.87 µg/mL) | < 5 nM | 0.003 µM (≈ 0.00137 µg/mL) | IC50 [18]: 60 nM; IC50 [13]: 8200 nM; Ratio IC50 [15]: 38; Ratio IC50 [19]: 4 |
| COc1nc2c(cc1CNCc1cccc(C(F)(F)F)c1)c(C)nn2-c1ccccc1 | > 100 µM | – | > 10000 nM | – | – |
| NNC(=O)c1ccncc1 [ISONIAZID] | – | – | – | 5 µM (≈ 0.686 µg/mL) | MIC [5]: 0.2 µM (≈ 0.0274 µg/mL); MIC [6]: 0.2 µM (≈ 0.0274 µg/mL); MIC [7]: 0.2 µM (≈ 0.0274 µg/mL) |
| Cc1nn(-c2ccccc2)c2[nH]c(=O)c(CN(C)Cc3cccc(C(F)(F)F)c3)cc12 | 1 µM (≈ 0.426 µg/mL) | – | 60 nM | – | – |
| COc1ncnc(Cn2cc(C(=O)NCCF)c3ncccc32)c1C | – | – | 5 nM | 1.51 µM (≈ 0.52 µg/mL) | – |
| Cc1nn(-c2ccccc2)c2[nH]c(=O)c(CNCc3cccc(C#N)c3)cc12 | > 100 µM | – | 2600 nM | – | – |
| Cc1nn(-c2ccccc2)c2[nH]c(=O)c(CN3CCc4ccc(C(F)(F)F)cc4C3)cc12 | > 100 µM | – | 6200 nM | – | – |
| Cc1nn(-c2ccccc2)c2c1cc(CNCc1cccc(C(F)(F)F)c1)c(=O)n2C | > 100 µM | – | > 10000 nM | – | – |
| O=c1[nH]c2c(cc1CNCc1cccc(C(F)(F)F)n1)c(C1CC1)nn2-c1ccccc1 | 3.1 µM (≈ 1.36 µg/mL) | 5.6 µM (≈ 2.46 µg/mL) | 50 nM | > 0.1 µM | IC50 [18]: 20 nM; IC50 [13]: 6100 nM; Ratio IC50 [15]: 40; solubility kinetic [8]: 153 µM (≈ 67.2 µg/mL); logD [9]: 3.2; fraction unbound at 20 µM [10]: 0.011; selectivity ratio [11]: 20; Ratio IC50 [19]: 6 |
| CC[C@@H](CO)NCCN[C@@H](CC)CO [ETHAMBUTOL] | – | – | – | – | MIC [5]: 2 µM (≈ 0.409 µg/mL); MIC [6]: 2 µM (≈ 0.409 µg/mL); MIC [7]: 2 µM (≈ 0.409 µg/mL) |
| Cc1ccc(C(F)(F)F)nc1CNCc1cc2c(C3CC3)nn(-c3ccccc3)c2[nH]c1=O | 1.5 µM (≈ 0.68 µg/mL) | 1.6 µM (≈ 0.726 µg/mL) | 10 nM | – | solubility kinetic [8]: 1 µM (≈ 0.453 µg/mL); logD [9]: 3.4; fraction unbound at 20 µM [10]: < 0.01; selectivity ratio [11]: 10 |

From ChEMBL document CHEMBL3259779, “Discovery of pyrazolopyridones as a novel class of noncovalent DprE1 inhibitor with potent anti-mycobacterial activity” (J Med Chem, 2014)
